{
  "source": "PubChem BioAssay AID493085",
  "about": "(Broad Institute, 2011)",
  "note": "Records with an inconclusive call do not appear. Active and inactive are the calls of the source.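 The calls were made as follows: active = falling-signal curve with half-maximal concentration at or below ten times the top tested dose; inconclusive = flat fit at 30 to 70% inhibition, or poor fit; inactive = signal rise, flat within 30%, or potency beyond limit.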",
  "data": [
    {"test_system": "NIH3T3 R4 HSE-GFP/Tet-RFP reporter, fluorescence, 48 h", "experiment": "Tet-On RFP internal-standard readout, HSF1 screen, dose response, cell-based, NIH3T3 R4, HSE-GFP and Tet-On RFP, cherry-pick, set 3 (AID 493085);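 also: cells heat shocked 2 h at 42 °C with doxycycline to induce reporters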", "values": [
      {"smiles": "COc1ccc(S(=O)(=O)N2CCCCCC2)cc1C(=O)OCC(=O)NC(C)(C)C", "AC50": "> 19.5 µM (inactive)"},
      {"smiles": "COc1c(N2CCN(C(=S)NC3CC4CCC3C4)C(C)C2)c(F)cc2c(=O)c(C(=O)O)cn(C3CC3)c12", "note": "(stereo not drawn)", "AC50": "17.9 µM"},
      {"smiles": "CCCS(=O)(=O)N1CCc2cc(OC)c(OC)cc2C1", "AC50": "> 10 µM (inactive)"},
      {"smiles": "CN=C1S/C(=C\\c2cc(C)n(-c3ccccc3F)c2C)C(=O)N1C", "AC50": "16.5 µM"},
      {"smiles": "O=[N+]([O-])c1cnc(Sc2ccncn2)s1", "AC50": "13.1 µM"},
      {"smiles": "CCOc1cc(C(=O)NCc2ccccc2)ccc1OCC(=O)N1CCOCC1", "AC50": "> 19.5 µM (inactive)"},
      {"smiles": "COc1ccccc1N(C)S(=O)(=O)c1ccc(C(=O)NC(C)c2ccccc2)cc1", "note": "(stereo not drawn)", "AC50": "> 19.5 µM (inactive)"},
      {"smiles": "NNC(=O)c1ccc(N2CCc3ccccc32)c([N+](=O)[O-])c1", "AC50": "> 19.5 µM (inactive)"},
      {"smiles": "COc1ccc(OCc2cccc(C(=O)Nn3cc([N+](=O)[O-])cn3)c2)cc1", "AC50": "9.72 µM"},
      {"smiles": "Cc1oc2c(c1C(=O)NCc1cccnc1)C(=O)c1ccccc1C2=O", "AC50": "0.891 µM"},
      {"smiles": "CC1C/C(=N/Nc2nc3ccccc3[nH]2)CC(C)(C)C1", "note": "(stereo not drawn)", "AC50": "> 19.5 µM (inactive)"},
      {"smiles": "CC12CCC(C/C1=N\\N=C1\\NC(=O)/C(=C\\c3ccc(Cl)cc3)S1)C2(C)C", "note": "(stereo not drawn)", "AC50": "1.82 µM"},
      {"smiles": "CCOc1ccc(-n2c(C)c(C(C)=O)c3cc(OC(C)=O)ccc32)cc1", "AC50": "2.24 µM"},
      {"smiles": "CC(C)(C)c1ccc2c(c1)OC(C(=O)N/N=C\\c1ccc[nH]1)CO2", "note": "(stereo not drawn)", "AC50": "0.182 µM"},
      {"smiles": "Cc1cc(C)c(NC(=O)CSc2nncn2-c2cccnc2)c(C)c1", "AC50": "> 19.5 µM (inactive)"},
      {"smiles": "O=C(NCCN1CCCCC1)Nc1ccccc1Cl", "AC50": "> 19.5 µM (inactive)"},
      {"smiles": "CCNC(=S)N(C)CCc1cc2c(c(OC)c1C=C1C(=O)N(C)C(=O)N(C)C1=O)OCO2", "AC50": "> 19.5 µM (inactive)"},
      {"smiles": "O=C(NCc1ccc2c(c1)OCO2)c1nc(S(=O)(=O)Cc2ccccc2)ncc1Cl", "AC50": "16.1 µM"},
      {"smiles": "Cc1cccc(C(=O)NC(=S)N2CCN(c3ccc([N+](=O)[O-])cc3)CC2)c1", "AC50": "> 19.5 µM (inactive)"},
      {"smiles": "CCc1ccc(C2=NNC(=Nc3cccc(S(=O)(=O)N(C)C)c3)SC2)cc1", "AC50": "2 µM"},
      {"smiles": "CN=c1scc(-c2ccco2)n1/N=C/c1ccc(O)c(O)c1", "AC50": "3.01 µM"},
      {"smiles": "CN(C)c1ccc(CNc2ccc3c(c2)ncn3C(C)(C)C)cc1", "AC50": "> 19.5 µM (inactive)"},
      {"smiles": "c1ccc(OCCSc2nc3ccccc3o2)cc1", "AC50": "> 19.5 µM (inactive)"},
      {"smiles": "CCCCCn1c(=O)c(C(=O)Nc2ccccn2)c(O)c2ccccc21", "AC50": "1.4 µM"},
      {"smiles": "Cc1cc(C)c(S(=O)(=O)/N=C2\\C=C(Nc3ccc(C(=O)O)cc3)C(=O)c3ccccc32)c(C)c1", "AC50": "4.97 µM"},
      {"smiles": "CCOC(=O)c1ccc(-n2[nH]c(-c3ccccc3)cc2=O)cc1", "AC50": "4.13 µM"},
      {"smiles": "NC(=O)c1cc2ccncc2c2ccccc12", "AC50": "0.805 µM"},
      {"smiles": "NC(=O)c1sc2nc3c(c(-c4cccs4)c2c1N)CCCCC3", "AC50": "0.404 µM"},
      {"smiles": "CC(=O)c1cn(CC(=O)Nc2ccccc2C)c2ccccc12", "AC50": "2.59 µM"},
      {"smiles": "Cc1sc2ncnc(NCCc3ccc(S(N)(=O)=O)cc3)c2c1C", "AC50": "0.185 µM"},
      {"smiles": "Cc1nn(-c2ccccc2)c(Cl)c1C(=O)N1CCN(c2ncnc3c2cnn3-c2ccccc2)CC1", "AC50": "6.77 µM"},
      {"smiles": "CCc1ccc(S(=O)(=O)/N=C2\\C=C(Nc3ccc(O)cc3)C(=O)c3ccccc32)cc1", "AC50": "1.83 µM"},
      {"smiles": "CCCCn1c(=O)[nH]c(=O)c2c1nc(Cn1ncc(Cl)c(Cl)c1=O)n2CCC", "AC50": "18.2 µM"},
      {"smiles": "Cc1nc2c(-c3ccccc3)cnn2c(N)c1-c1ccccc1", "AC50": "> 19.5 µM (inactive)"},
      {"smiles": "CCOc1cc(C(=S)N2CCOCC2)ccc1OS(=O)(=O)c1ccc(OC)cc1", "AC50": "16.1 µM"},
      {"smiles": "CS(=O)(=O)c1nc(-c2ccccc2)cc(C(F)(F)F)n1", "AC50": "1.81 µM"},
      {"smiles": "CCSc1nnc(NC(=O)C(Cc2ccccc2)n2cccc2)s1", "note": "(stereo not drawn)", "AC50": "> 19.5 µM (inactive)"},
      {"smiles": "COc1ccc(N(Cc2cc3cc(OC)ccc3[nH]c2=O)S(=O)(=O)c2ccc(NC(C)=O)cc2)cc1", "AC50": "14.3 µM"},
      {"smiles": "CC1CCc2nc(N)c(C#N)c(-c3cccnc3)c2C1", "note": "(stereo not drawn)", "AC50": "0.708 µM"},
      {"smiles": "O=C(Nc1nc(-c2cccs2)cs1)c1cccc(S(=O)(=O)N2CCCCCC2)c1", "AC50": "0.674 µM"},
      {"smiles": "S=C1Cc2ccccc2N1", "AC50": "2.46 µM"},
      {"smiles": "CC1=C(C(=O)OCc2ccc3c(c2)OCO3)C(c2ccc(F)cc2)NC(=O)N1", "note": "(stereo not drawn)", "AC50": "0.27 µM"},
      {"smiles": "Cc1ccc(S(=O)(=O)N2CCN(CC(=O)N/N=C\\c3ccncc3)CC2)cc1", "AC50": "> 19.5 µM (inactive)"},
      {"smiles": "O=c1cc(-c2ccccc2)c2ccc(O)cc2o1", "AC50": "> 19.5 µM (inactive)"},
      {"smiles": "Fc1ccc(-n2cc(-c3ccccc3)c3c(N4CCOCC4)ncnc32)cc1", "AC50": "6.34 µM"},
      {"smiles": "COc1ccc(CNC(=O)c2cnc3scc(C)n3c2=O)cc1", "AC50": "> 19.5 µM (inactive)"},
      {"smiles": "CC1(C)CC(NC(=O)COc2ccccc2Cl)CC(C)(C)N1", "AC50": "> 19.5 µM (inactive)"},
      {"smiles": "O=C(C#Cc1ccccc1)c1ccco1", "AC50": "4.11 µM"}
    ]}
  ]
}
